The text below walks through data of US8802721B2, “Thiophene compounds for inflammation and immune-related uses” (Synta Pharmaceuticals Corp., priority 2005, dated 2014).

SMILES strings stand for the structures.

Chain of ICRAC current in RBL cells (CRAC ion channel) (Q5M848 whole entry, looked up, the tested form may be a part): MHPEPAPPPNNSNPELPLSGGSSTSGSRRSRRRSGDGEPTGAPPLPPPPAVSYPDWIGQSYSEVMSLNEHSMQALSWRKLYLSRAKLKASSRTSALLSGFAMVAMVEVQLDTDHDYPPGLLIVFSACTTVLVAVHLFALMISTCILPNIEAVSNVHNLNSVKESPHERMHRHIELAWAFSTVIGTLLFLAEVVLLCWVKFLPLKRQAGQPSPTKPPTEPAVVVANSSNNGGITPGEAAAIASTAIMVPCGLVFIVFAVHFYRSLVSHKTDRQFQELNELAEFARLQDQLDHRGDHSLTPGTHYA

The target of one test is ICRAC current in RBL cells (CRAC ion channel) (Rattus norvegicus, UniProt Q5M848). Nature of the test: Patch clamp inhibition of ICRAC current in RBL cells. The settings on record: whole-cell patch clamp, inward current at −80 mV, read-out: IC50 (concentration which inhibits 50% of the ICRAC current). The format is cell-based. As to the method:
In general, a whole cell patch clamp method is used to examine the effects of a compound of the invention on a channel that mediates Icrac. In such experiments, a baseline measurement is established for a patched cell. Then a compound to be tested is perfused (or puffed) to cells in the external solution and the effect of the compound on Icrac is measured. A compound that modulates Icrac (e.g., inhibits) is a compound that is useful in the invention for modulating CRAC ion channel activity.
Rat basophilic leukemia cells (RBL-2H3) were grown in DMEM media supplemented with 10% fetal bovine serum in an atmosphere of 95% air/5% CO2. Cells were seeded on glass coverslips 1-3 days before use.
Membrane currents of individual cells were recorded using the whole-cell configuration of the patch clamp technique with an EPC10 (HEKA Electronik, Lambrecht, Germany). Electrodes (2-5 MΩ in resistance) were fashioned from borosilicate glass capillary tubes (Sutter Instruments, Novato, Ca). […]
ICRAC currents were monitored every 2 seconds using a 50 msec protocol, where the voltage was ramped from −100 mV to +100 mV. […]
The ICRAC current level was determined by measuring the inward current amplitude at −80 mV of the voltage ramp in an off-line analysis using MATLAB. The ICRAC current inhibition for each concentration was calculated using peak amplitude in the beginning of the experiment from the same cell. […]
For the compound `COc1ccc(CCCOC(Cn2ccnc2)c2ccc(OC)cc2)cc1` (stereo not shown) [SKF96365], the IC50 was 4000 nM.

The next test concerns IL-2 production. Nature of the test: Inhibition of IL-2 production in PHA-activated Jurkat cells (ELISA). The settings on record: Homo sapiens, PHA 2.5 μg/mL, 20 hours. The format is cell-based. As to the method:
Jurkat cells were placed in a 96 well plate (0.5 million cells per well in 1% FBS medium) then a test compound of this invention was added at different concentrations. After 10 minutes, the cells were activated with PHA (final concentration 2.5 μg/mL) and incubated for 20 hours at 37° C. under CO2. The final volume was 200 μL. Following incubation, the cells were centrifuged and the supernatants collected and stored at −70° C. prior to assaying for IL-2 production. A commercial ELISA kit (IL-2 Eli-pair, Diaclone Research, Besancon, France) was used to detect production of IL-2, from which dose response curves were obtained.
The compound `COC(=O)c1ccc(C)c(-c2ccc(NC(=O)c3c(F)cccc3F)s2)c1` [Compound 118, 3-[5-(2,6-Difluoro-benzoylamino)-thiophen-2-yl]-4-methyl-benzoic acid methyl ester] showed an IC50 of 104 nM.

As to `O=C(Nc1c(F)cccc1F)c1ccc(-c2cc(C(F)(F)F)ccc2Cl)s1` [Compound 1, 5-(2-Chloro-5-trifluoromethyl-phenyl)-thiophene-2-carboxylic acid (2,6-difluoro-phenyl)-amide], the IC50 was 3 nM.

Turning to `COC(=O)c1ccc(C)c(-c2ccc(C(=O)Nc3c(F)cccc3F)s2)c1` [Compound 3, 3-[5-(2,6-Difluoro-phenylcarbamoyl)-thiophen-2-yl]-4-methyl-benzoic acid methyl ester], the IC50 came to 6.4 nM.

With `Cc1cnccc1NC(=O)c1ccc(-c2cc(C(F)(F)F)ccc2Cl)s1` [Compound 2, 5-(2-Chloro-5-trifluoromethyl-phenyl)-thiophene-2-carboxylic acid (3-methyl-pyridin-4-yl)-amide], the IC50 stood at 14 nM.

`Cc1ccc(-c2ncco2)cc1-c1ccc(NC(=O)c2c(F)cccc2F)s1` [Compound 119, 2,6-Difluoro-N-[5-(2-methyl-5-oxazol-2-yl-phenyl)-thiophen-2-yl]-benzamide] had an IC50 of 94.8 nM.

With `O=C(Nc1ccc(-c2cccc(-c3cnco3)c2)s1)c1c(F)cccc1F` [Compound 121, 2,6-Difluoro-N-[5-(3-oxazol-5-yl-phenyl)-thiophen-2-yl]-benzamide], the IC50 is 164 nM.

Turning to `O=C(Nc1ccc(-c2cccc(C(F)(F)F)c2)s1)c1c(F)cccc1F` [Compound 117, 2,6-Difluoro-N-[5-(3-trifluoromethyl-phenyl)-thiophen-2-yl]-benzamide], the IC50 turned out to be 16.5 nM.

Compound `COC(=O)c1cccc(-c2sc(NC(=O)c3c(F)cccc3F)cc2C)c1` [Compound 120, 3-[5-(2,6-Difluoro-benzoylamino)-3-methyl-thiophen-2-yl]-benzoic acid methyl ester] came in with an IC50 of 87 nM.

`COC(=O)c1ccc(C)c(-c2ccc(C(=O)Nc3ccncc3C)s2)c1` [Compound 4, 4-Methyl-3-[5-(3-methyl-pyridin-4-ylcarbamoyl)-thiophen-2-yl]-benzoic acid methyl ester]: the IC50 worked out at 58.5 nM.
